Assay results taken from BindingDB's records for doi:10.1021/acschembio.7b00385 (Novartis Pharma, 2017).

Columns and labels:
Test in all cases: Liquid growth assay
Conditions in all cases: 30 °C
Actin [R183K] = Actin [R183K] (Saccharomyces cerevisiae (strain ATCC 204508 / S288c), UniProt P60010, R183K)
Experimental: (§1) Saturated ACT1 wild type (WT) as well as engineered ACT1 R183K (R183K) and ACT1 R335K (R335K) cultures were adjusted to 10 OD600 and 3 uL of serial 1:3 dilutions spotted on YPD agar supplemented with indicated concentrations of Chivosazole F. Growth was scored after 3 days incubation at 30 °C.

Actin = Actin (Saccharomyces cerevisiae (strain ATCC 204508 / S288c), UniProt P60010)
Experimental: as §1

Actin [R335K] = Actin [R335K] (Saccharomyces cerevisiae (strain ATCC 204508 / S288c), UniProt P60010, R335K)
Experimental: as §1

Structure (SMILES) | IC50 (Actin [R183K]) | IC50 (Actin) | IC50 (Actin [R335K])
C/C1=C\[C@@H](C)[C@@H](C)OC(=O)C[C@H](c2ccc(O)cc2)NC(=O)[C@@H](Cc2c[nH]c3ccccc23)N(C)C(=O)[C@H](C)NC(=O)[C@@H](C)C1 [CHEBI:84382] | 11.9 µM | 16.7 µM | 15.1 µM
COC1CC(O)/C=C/C=C/C=C\C(C)C(C(C)C(O)CC(C)O)OC(=O)\C=C/C=C/C=C\C(C)=C\C(C)C(O)/C=C\C=C\c2coc(n2)C1C (centres undefined) [SCHEMBL1889389] | 0.38 µM | 0.14 µM | 0.27 µM
C/C1=C/C(=O)O[C@@H]2C[C@@H](CC[C@H](C)/C=C\C=C\CC1)O[C@@](O)([C@@H]1CSC(=O)N1)C2 [LAT-A] | 0.11 µM | 0.07 µM | 0.04 µM
